Assay results as given in patent publication US20250320205A1, “STAT6 DEGRADERS” (Gilead Sciences, Inc., priority 2024, published 2025).

What follows are compounds tested against T1, STAT6 (Homo sapiens, UniProt P42226) (assay: STAT6 Degrader Assay (HiBiT based, HeLa LgBiT clone 4.14 cells)). Conditions: HeLa; maximal STAT6 degradation.
T1 construct: These cells express endogenous STAT6; host or cells: HeLa LgBiT clone 4.14 (CRISPR knock-in of HiBiT into the endogenous STAT6 gene)
T1 sequence (P42226 1-847): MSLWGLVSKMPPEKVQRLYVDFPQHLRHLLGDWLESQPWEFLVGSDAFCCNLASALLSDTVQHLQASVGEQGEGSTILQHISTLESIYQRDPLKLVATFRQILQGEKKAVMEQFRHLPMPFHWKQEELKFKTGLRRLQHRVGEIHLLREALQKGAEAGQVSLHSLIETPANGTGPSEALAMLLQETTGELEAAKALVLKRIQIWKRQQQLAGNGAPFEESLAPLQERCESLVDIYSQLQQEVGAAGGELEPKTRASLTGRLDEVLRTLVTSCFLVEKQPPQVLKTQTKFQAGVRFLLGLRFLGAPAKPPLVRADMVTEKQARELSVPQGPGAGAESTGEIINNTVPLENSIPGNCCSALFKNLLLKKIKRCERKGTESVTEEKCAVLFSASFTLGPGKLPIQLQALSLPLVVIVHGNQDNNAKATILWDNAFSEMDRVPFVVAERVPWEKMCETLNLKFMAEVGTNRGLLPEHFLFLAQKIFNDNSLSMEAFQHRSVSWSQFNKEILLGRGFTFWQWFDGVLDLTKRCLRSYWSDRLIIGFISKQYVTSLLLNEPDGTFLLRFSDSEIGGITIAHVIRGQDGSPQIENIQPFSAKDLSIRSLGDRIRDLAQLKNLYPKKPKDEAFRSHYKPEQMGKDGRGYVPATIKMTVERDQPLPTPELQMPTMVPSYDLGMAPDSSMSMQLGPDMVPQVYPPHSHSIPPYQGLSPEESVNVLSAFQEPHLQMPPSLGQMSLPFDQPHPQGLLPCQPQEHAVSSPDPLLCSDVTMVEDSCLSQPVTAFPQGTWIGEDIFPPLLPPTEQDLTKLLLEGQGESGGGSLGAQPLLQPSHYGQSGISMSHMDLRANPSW
Type: cell-based
Method: This was a HiBit based assay. A HeLa cell line stably transfected with a small protein, LgBit (Large Bit) was obtained from Promega. These cells express endogenous STAT6. A small 11 amino acid gene sequence (HiBiT) was inserted in the STAT6 gene using CRISPR technology. Once STAT6 protein is expressed in the cells, the HiBiT sequence will bind the LgBit in the cells resulting in a functional NanoBiT protein, giving a luminescent tag to STAT6. Single cell clones were prepared and the clone 4.14 was selected for the assay based on that clone showing high luminescence, high STAT6 phosphorylation upon stimulation with IL-4, and inhibition of luminescence when cells were treated with STAT6 siRNA. HeLa LgBiT clone 4.14 cells were suspended in DMEM with 10% FCS, 1% Pen/Strep, Na-pyrovate and Hygromycin B, at a concentration of 1.25*105 cells pr mL. 5000 cells were added pr well of a 384 well plate and 20 nL of compound was added by Echo® liquid handler. NN6394A (terfenadine, a toxic compound) was added to control wells at 50 μM concentration to establish the assay window. In these wells the cells are dead which equals 100% degradation of STAT6. After 4-24 h of incubation at 37° C. under 5% CO2/95% air, 5 μL substrate (Nano-GLO®) was added to the wells and the plates were centrifuged and incubated for 0.5 h. The luminescence in the wells as a measure of non-degraded STAT6 was measured in a plate reader (BMG Pherastar FSX). The measured DC50 (in nM) was determined.

For CNc1ccn(-c2ccnc3c2cc(CN2CC=C(c4c(C)cc(C(=O)N5CCC(CN6CCN(c7ccc(N[C@@H]8CCC(=O)NC8=O)cc7F)CC6)CC5)cc4F)CC2)n3C)c(=O)c1 (single isomer, unassigned) [Example 2g56], which Emax is on record?
The Emax was 70 to 80%.

For CNc1ccn(-c2ccnc3c2cc([C@H](C)N2CC=C(c4c(C)cc(C(=O)N5CCC(CN6CCN(c7ncc(NC8CCC(=O)NC8=O)cc7F)CC6)CC5)cc4F)CC2)n3C)c(=O)c1 (stereo partly drawn) [Example 2g13, 3-((5-fluoro-6-(4-((1-(3-fluoro-5-methyl-4-(1-((S)-1-(1-methyl-4-(4-(methyl-amino)-2-oxopyridin-1(2H)-yl)-1H-pyrrolo[2,3-b]pyridin-2-yl)ethyl)-1,2,3,6-tetrahydro-pyridin-4-yl)benzoyl)piperi-din-4-yl)methyl)piperazin-1-yl)pyridin-3-yl)amino)piperi-dine-2,6-dione], which Emax is on record?
Its Emax is 20 to 30%.

For COc1cc(N2CCN(CC3CCN(C(=O)c4cc(C)c(C5=CCN([C@@H](C)c6cc7c(-n8cc(F)c9c(c8=O)CCN9)ccnc7n6C)CC5)c(F)c4)CC3)CC2)ccc1NC1CCC(=O)NC1=O (stereo partly drawn) [Example 2g130, 3-((4-(4-((1-(3-fluoro-4-(1-((S)-1-(4-(7-fluoro-4-oxo-1,2,3,4-tetrahydro-5H-pyr-rolo-[3,2-c]pyridin-5-yl)-1-methyl-1H-pyrrolo[2,3-b]pyridin-2-yl)ethyl)-1,2,3,6-tetrahydropyridin-4-yl)-5-methylbenzoyl)piperidin-4-yl)methyl)piperazin-1-yl)-2-methoxyphenyl)amino)piper-idine-2,6-dione], which Emax is on record?
Its Emax is 30 to 40%.

For CNc1ccn(-c2ccnc3c2cc(CN2CC=C(c4c(C)cc(C(=O)N5CCC(CN6CCN(c7ccc(N[C@H]8CCC(=O)NC8=O)cc7F)CC6)CC5)cc4F)CC2)n3C)c(=O)c1 (single isomer, unassigned) [Example 2g55], which Emax is on record?
Its Emax is 70 to 80%.

How did the Emax turn out when Cc1cc(C(=O)N(C)c2ccc(C3CCN(c4ccc(NC5CCC(=O)NC5=O)cc4F)CC3)cc2)cc(F)c1C1=CCN([C@H](C)c2cc3c(-n4ccc5[nH]ncc5c4=O)ccnc3n2C)CC1 (stereo partly drawn) [Example 2g133, N-(4-(1-(4-((2,6-dioxopiperi-din-3-yl)amino)-2-fluoro-phenyl)piperidin-4-yl)phen-yl)-3-fluoro-N,5-dimethyl-4-(1-((R)-1-(1-methyl-4-(4-oxo-1,4-dihydro-5H-pyrazolo[4,3-c]pyridin-5-yl)-1H-pyrrolo [2,3-b]pyridin-2-yl)ethyl)-1,2,3,6-tetrahydropyridin-4-yl)benzamide] was run?
The Emax was 60 to 70%.

Same assay, conditions: geometric mean across assay runs and compound batches; DC50 provided for test compounds with >80% Emax; read-out: STAT6 degradation DC50

CNc1ccn(-c2ccnc3c2cc([C@H](C)N2CCC(c4c(C)cc(C(=O)N5CCC(CN6CCN(c7ccc(N[C@H]8CCC(=O)NC8=O)cc7F)CC6)CC5)cc4F)CC2)n3C)c(=O)c1 (single isomer, unassigned) [Example 2g45] was tested. Which DC50 did it give?
Its DC50 is 10.7 nM.

With CNc1ccn(-c2ccnc3c2cc(CN2CC=C(c4c(C)cc(C(=O)N5CCC(CN6CCN(c7ccc(NC8CCC(=O)NC8=O)cc7F)CC6)CC5)cc4F)CC2)n3C)c(=O)c1 (centres unmarked) [Example 2g54, 3-((3-fluoro-4-(4-((1-(3-fluoro-5-methyl-4-(1-((1-methyl-4-(4-(methylamino)-2-oxopyridin-1(2H)-yl)-1H-pyrrolo[2,3-b]pyridin-2-yl)-methyl)-1,2,3,6-tetrahydro-pyridin-4-yl)benzoyl)piperi-din-4-yl)methyl)piperazin-1-yl)phenyl)amino)piperidine-2,6-dione] as the compound, how does the DC50 read?
Its DC50 is 7.3 nM.

With CNc1ccn(-c2ccnc3c2cc([C@H](C)N2CCC(c4c(C)cc(C(=O)N5CCC(CN6CCN(c7ccc(N[C@@H]8CCC(=O)NC8=O)cc7F)CC6)CC5)cc4F)CC2)n3C)c(=O)c1 (single isomer, unassigned) [Example 2g44] as the compound, how does the DC50 read?
Its DC50 is 12.2 nM.

Which DC50 does the source give for CNc1ccn(-c2ccnc3c2cc([C@H](C)N2CC=C(c4c(C)cc(C(=O)N5CCC(CN6CCN(c7ccc(N[C@@H]8CCC(=O)NC8=O)cc7F)CC6)CC5)cc4F)CC2)n3C)c(=O)c1 (single isomer, unassigned) [Example 2g38] here?
The DC50 was 2.4 nM.

Which DC50 does the source give for CNc1ccn(-c2ccnc3c2cc([C@H](C)N2CC=C(c4c(F)cc(C(=O)N5CCC(CN6CCN(c7ccc(N[C@H]8CCC(=O)NC8=O)cc7F)CC6)CC5)cc4F)CC2)n3C)c(=O)c1 (single isomer, unassigned) [Example 2g106] here?
The DC50 was 7.66 nM.

Which DC50 does the source give for CNc1cc(=O)n(-c2ccnc3c2cc([C@H](C)N2CC=C(c4c(C)cc(C(=O)N5CCC(CN6CCN(c7ccc(N[C@@H]8CCC(=O)NC8=O)cc7F)CC6)CC5)cc4F)CC2)n3C)cc1F (single isomer, unassigned) [Example 2g93] here?
The DC50 was 7.2 nM.

For CNc1cc(=O)n(-c2ccnc3c2cc([C@H](C)N2CC=C(c4c(C)cc(C(=O)N5CCC(CN6CCN(c7ccc(N[C@@H]8CCC(=O)NC8=O)cc7F)C[C@H]6C)CC5)cc4F)CC2)n3C)cc1F (single isomer, unassigned) [Example 2g28], which DC50 is on record?
Its DC50 is 10.3 nM.

With CNc1cc(=O)n(-c2ccnc3c2cc([C@H](C)N2CC=C(c4c(C)cc(C(=O)N5CCC(CN6CCN(c7ccc(N[C@H]8CCC(=O)NC8=O)cc7F)CC6)CC5)cc4F)CC2)n3C)cc1F (single isomer, unassigned) [Example 2g92] as the compound, how does the DC50 read?
Its DC50 is 5.9 nM.

For CNc1ccn(-c2ccnc3c2cc(CN2CCC(c4c(C)cc(C(=O)N5CCC(CN6CCN(c7ccc(N[C@H]8CCC(=O)NC8=O)cc7F)CC6)CC5)cc4F)CC2)n3C)c(=O)c1 (single isomer, unassigned) [Example 2g62], which DC50 is on record?
The DC50 was 18 nM.

CNc1ccn(-c2ccnc3c2cc(CN2CCC(c4c(C)cc(C(=O)N5CCC(CN6CCN(c7ccc(N[C@@H]8CCC(=O)NC8=O)cc7F)CC6)CC5)cc4F)CC2)n3C)c(=O)c1 (single isomer, unassigned) [Example 2g61] was tested. Which DC50 did it give?
The DC50 was 14.8 nM.

With Cc1cc(C(=O)N2CCC(CN3CCN(c4ccc(N[C@H]5CCC(=O)NC5=O)cc4F)CC3)CC2)cc(F)c1C1=CCN([C@@H](C)c2cc3c(-n4ccc5c(c4=O)CCN5)ccnc3n2C)CC1 (single isomer, unassigned) [Example 2g19] as the compound, how does the DC50 read?
Its DC50 is 4.5 nM.

For CNc1ccn(-c2ccnc3c2cc([C@H](C)N2CC=C(c4c(C)cc(C(=O)N5CCn6nc(CN7CCC(c8ccc(N[C@H]9CCC(=O)NC9=O)cc8F)CC7)cc6C5)cc4F)CC2)n3C)c(=O)c1 (single isomer, unassigned) [Example 2g16], which DC50 is on record?
The DC50 was 0.2 nM.

For Cc1cc(C(=O)N2CCC(CN3CCN(c4ccc(NC5CCC(=O)NC5=O)cc4F)C[C@H]3C)CC2)cc(F)c1C1=CCN([C@@H](C)c2cc3c(-n4ccc5c(c4=O)CCN5)ccnc3n2C)CC1 (stereo partly drawn) [Example 2g22, 3-((3-fluoro-4-((R)-4-((1-(3-fluoro-5-methyl-4-(1-((S)-1-(1-methyl-4-(4-oxo-1,2,3,4-tetrahydro-5H-pyrrolo[3,2-c]pyridin-5-yl)-1H-pyrrolo[2,3-b]pyridin-2-yl)ethyl)-1,2,3,6-tetrahydro-pyridin-4-yl)-benzoyl)piperidin-4-yl)meth-yl)-3-methylpiperazin-1-yl)-phenyl)amino)piperidine-2,6-dione], which DC50 is on record?
The DC50 was 3.3 nM.

With CNc1ccn(-c2ccnc3c2cc([C@H](C)N2CC=C(c4c(C)cc(C(=O)N5CCC(CN6CCN(c7ccc(NC8CCC(=O)NC8=O)cc7F)CC6)CC5)cc4F)CC2)n3C)c(=O)c1 (stereo partly drawn) [Example 2g37, 3-((3-fluoro-4-(4-((1-(3-fluoro-5-methyl-4-(1-((S)-1-(1-methyl-4-(4-(methyl-amino)-2-oxopyridin-1(2H)-yl)-1H-pyrrolo[2,3-b]pyridin-2-yl)ethyl)-1,2,3,6-tetrahydro-pyridin-4-yl)benzoyl)piperi-din-4-yl)methyl)piperazin-1-yl)phenyl)amino)piperidine-2,6-dione] as the compound, how does the DC50 read?
The DC50 was 1.8 nM.

For CNc1ccn(-c2ccnc3c2cc([C@H](C)N2CC=C(c4c(C)cc(C(=O)N5CCC(CN6CCN(c7ccc(N[C@H]8CCC(=O)NC8=O)cc7F)C[C@H]6C)CC5)cc4F)CC2)n3C)c(=O)c1 (single isomer, unassigned) [Example 2g48], which DC50 is on record?
The DC50 was 2.4 nM.
